In patent US7345056B2, “Bridged N-cyclic sulfonamido inhibitors of gamma secretase” (Elan Pharmaceuticals, Inc., priority 2005, dated 2008) one finds IC50 data, which are given here for 22 compounds.

Where only a bound is given, the exact number is not on record here.

In general, IC50 refers to the point on the concentration scale where inhibition reaches its midpoint.

In this experiment the target is T1, gamma-secretase (partially purified extract of IMR-32 cell membranes) (Homo sapiens, UniProt P49768).
T1 construct: a partially purified extract of IMR-32 cell membranes as the gamma-secretase enzyme preparation; endogenous in cells; host or cells: IMR-32 cell membranes, partially purified extract
Description: Gamma-secretase APP enzyme assay (cleavage of MBP-C125 Swe at the Aβ40 site, sandwich ELISA). Type of experiment: biochemical. The conditions noted are these: MBP-C125swe substrate, IMR-32 membrane extract, 2 h at 37° C., Aβ40 site cleavage product by ELISA; read-out: γAPP (inhibition, IC50). The text has this: The gamma-secretase APP enzyme assay was designed to measure the specific proteolytic cleavage of an APP substrate (MBP-C125 Swe fusion protein) at the Aβ40 site. […] This assay involved two steps beginning with the enzymatic reaction generating a cleavage product that was captured with an immobilized antibody specific for the neo-epitope Aβ40 site. The captured cleavage product was then detected in a sandwich ELISA assay with a biotinylated reporter antibody that is specific to Aβ (17-28). Streptavidin-linked alkaline phosphatase was then added that would generate a fluorescent signal proportional to the amount of cleavage product.
This warmed solution of BigCHAPS(N,N-Bis(3-D-gluconamidopropyl)cholamide) detergent was used to dissolve Brain Extract Type-V (lipid containing a minimum of 40% phosphatidylethanolamine) from Sigma (St. Louis, Mo.) to a concentration of 8 mg/ml. This solution containing BigCHAPS and lipid at 8 mg/ml is then diluted to 0.53 mg/ml lipid with a pre-warmed solution of Hepes and sodium chloride. This final solution containing Hepes buffer, sodium chloride, BigCHAPS detergent and lipid is used to create working solutions of both gamma-secretase (25 Units) and the MBP-C125 substrate (0.05 mg/ml).
Gamma-secretase was then added to a 96-well micro-titre plate and then incubated with various concentrations of inhibitor for 30 minutes at 37° C. MBPC125 substrate was then added to initiate the reaction that would run for two hours at 37° C. The reaction was quenched with the addition of SDS to a final concentration of 0.1% and then 100 μl of the reaction mixture was transferred to a capture ELISA plate and incubated overnight at 4° C. Detection of the cleavage product was performed using a standard sandwich ELISA assay and quantified using a six point standard curve.

As for `O=S(=O)(c1ccc(Cl)cc1)N1C2CCCC1c1c(C(F)F)n[nH]c1C2` (stereo not shown) [12-(4-Chloro-benzenesulfonyl)-3-difluoromethyl-4,5,12-triaza-tricyclo[6.3.1.0^2,6]dodeca-2(6),3-diene], the IC50 was less than 100 nM.

Consider `Cc1n[nH]c2c1C1CCCC(C2)N1S(=O)(=O)c1ccc(Cl)cc1` (stereo not shown) [12-(4-Chloro-benzenesulfonyl)-3-methyl-4,5,12-triaza-tricyclo[6.3.1.0^2,6]dodeca-2(6),3-diene], for which the IC50 is less than 100 nM.

Regarding `O=S(=O)(c1ccc(Cl)s1)N1C2CCCC1c1cn[nH]c1C2` (stereo not shown) [Example 8, 12-(5-Chloro-thiophene-2-sulfonyl)-4,5,12-triaza-tricyclo[6.3.1.0^2,6]dodeca-2(6),3-diene], the half-inhibitory concentration (IC50) is less than 100 nM.

With `CC1c2[nH]ncc2C2CCCC1N2S(=O)(=O)c1ccc(Cl)cc1` (stereo not shown) [Example 11, 12-(4-Chloro-benzenesulfonyl)-7-methyl-4,5,12-triaza-tricyclo[6.3.1.0^2,6]dodeca-2(6),3-diene], the IC50 is less than 100 nM.

Consider `CCC1c2[nH]ncc2C2CCCC1N2S(=O)(=O)c1ccc(Cl)cc1` (stereo not shown) [Example 14, 12-(4-Chloro-benzenesulfonyl)-7-ethyl-4,5,12-triaza-tricyclo[6.3.1.0^2,6]dodeca-2(6),3-diene], for which the IC50 is less than 100 nM.

On to `O=S(=O)(c1ccc(Cl)cc1)N1C2CCCC1C(O)c1[nH]ncc12` (stereo not shown) [Example 36, 12-(4-Chloro-benzenesulfonyl)-4,5,12-triaza-tricyclo[6.3.1.0^2,6]dodeca-2(6),3-dien-7-ol], for which the IC50 is less than 100 nM.

Regarding `Cn1ncc2c1CC1CCCC2N1S(=O)(=O)c1ccc(Cl)cc1` (stereo not shown) [Example 53, 12-(4-Chloro-benzenesulfonyl)-5-methyl-4,5,12-triaza-tricyclo[6.3.1.0^2,6]dodeca-2(6),3-diene], the IC50 lay within 250 to 500 nM.

With `O=S(=O)(c1ccc(Cl)cc1)N1C2CCCC1c1cnc3c(-c4ccccc4)cnn3c1C2` (stereo not shown) [Example 62, 16-(4-Chloro-benzenesulfonyl)-6-phenyl-4,8,9,16-tetraaza-tetracyclo-[10,3,1,0^2,10,0^5,9]-hexadeca-2(10),3,5,7-tetraene], the IC50 was 100 to 250 nM.

As for `O=S(=O)(c1ccc(Cl)cc1)N1C2CCCC1c1cnc3cc(-c4ccccc4)nn3c1C2` (stereo not shown) [Example 63, 16-(4-Chloro-benzenesulfonyl)-7-phenyl-4,8,9,16-tetraaza-tetracyclo-[10,3,1,0^2,10,0^5,9]-hexadeca-2(10),3,5,7-tetraene], the IC50 fell in the range of 250 to 500 nM.

As for `O=S(=O)(c1ccc(Cl)cc1)N1C2CCCC1c1cnn(C3CCCCC3)c1C2` (stereo not shown) [Example 66, 12-(4-Chloro-benzenesulfonyl)-5-cyclohexyl-4,5,12-triaza-tricyclo[6.3.1.0^2,6]dodeca-2(6),3-diene], the IC50 is 250 to 500 nM.

Consider `O=S(=O)(c1ccc(Cl)cc1)N1C2CCC1c1cn[nH]c1C2` (stereo not shown) [Example 79, 11-(4-Chloro-benzenesulfonyl)-4,5,11-triaza-tricyclo[6.3.1.0^2,6]undeca-2(6),3-diene], for which the IC50 is less than 100 nM.

For `O=S(=O)(c1ccc(Cl)cc1)N1C2CCCC1c1c(C(F)(F)F)n[nH]c1C2` (stereo not shown) [Example 82, 12-(4-Chloro-benzenesulfonyl)-3-trifluoromethyl-4,5,12-triaza-tricyclo-[6.3.1.0^2,6]dodeca-2(6),3-diene], the IC50 is less than 100 nM.

On to `CC(=O)n1cc2c(n1)CC1CCCC2N1S(=O)(=O)c1ccc(Cl)cc1` (stereo not shown) [Example 83, 1-[12-(4-Chloro-benzenesulfonyl)-4,5,12-triaza-tricyclo[6.3.1.0^2,6]dodeca-2,5-dien-4-yl]-ethanone], for which the IC50 is less than 100 nM.

On to `CC(C)C(=O)n1cc2c(n1)CC1CCCC2N1S(=O)(=O)c1ccc(Cl)cc1` (stereo not shown) [Example 84, 1-[12-(4-Chloro-benzenesulfonyl)-4,5,12-triaza-tricyclo[6.3.1.0^2,6]dodeca-2,5-dien-4-yl]-2-methyl-propan-1-one], for which the IC50 was less than 100 nM.

For the compound `CC(=O)OC(C)(C)C(=O)n1cc2c(n1)CC1CCCC2N1S(=O)(=O)c1ccc(Cl)cc1` (stereo not shown) [Example 85, Acetic acid 2-[12-(4-chloro-benzenesulfonyl)-4,5,12-triaza-tricyclo[6.3.1.0^2,6]dodeca-2,5-dien-4-yl]-1,1-dimethyl-2-oxo-ethyl ester], the IC50 is less than 100 nM.

In the case of `C=CCOC(=O)n1cc2c(n1)CC1CCCC2N1S(=O)(=O)c1ccc(Cl)cc1` (stereo not shown) [Example 86, 12-(4-Chloro-benzenesulfonyl)-4,5,12-triaza-tricyclo[6.3.1.0^2,6]dodeca-2,5-diene-4-carboxylic acid allyl ester], the IC50 was in the range of 250 to 500 nM.

On to `Nc1ncc2c(n1)CC1CCCC2N1S(=O)(=O)c1ccc(Cl)cc1` (stereo not shown) [Example 87, 13-(4-Chloro-benzenesulfonyl)-4,6,13-triaza-tricyclo[7.3.1.0^2,7]trideca-2(7),3,5-trien-5-ylamine], for which the IC50 was in the range of 100 to 250 nM.

Turning to `O=S(=O)(c1ccc(Cl)cc1)N1C2CCCC1c1c(C(F)(F)F)n[nH]c1C2` (stereo not shown) [Example 89, 12-(4-Chloro-benzenesulfonyl)-3-trifluoromethyl-4,5,12-triaza-tricyclo-[6.3.1.0^2,6]dodeca-2(6),3-diene], the IC50 lay within 100 to 250 nM.

As to `O=S(=O)(c1ccc(Cl)cc1)N1C2CCCC1c1c(Cl)n[nH]c1C2` (stereo not shown) [Example 91, 3-Chloro-12-(4-chloro-benzenesulfonyl)-4,5,12-triaza-tricyclo[6.3.1.0^2,6]dodeca-2(6),3-diene], the IC50 lay within 250 to 500 nM.

As to `Nc1n[nH]c2c1C1CCCC(C2)N1S(=O)(=O)c1ccc(Cl)cc1` (stereo not shown) [Example 94, 12-(4-Chloro-benzenesulfonyl)-4,5,12-triaza-tricyclo[6.3.1.0^2,6]dodeca-2(6),3-dien-3-ylamine], the IC50 is less than 100 nM.

Regarding `Nc1n[nH]c2c1C1CCCC(C2)N1S(=O)(=O)c1ccc(Cl)cc1` (stereo not shown) [Example 97, 12-(4-Chloro-benzenesulfonyl)-4,5,12-triaza-tricyclo[6.3.1.0^2,6]dodeca-2(6),3-dien-3-ylamine], the IC50 was less than 100 nM.

As to “N-[12-(4-Chloro-benzenesulfonyl)-4,5,12-triaza-tricyclo[6.3.1.0^2,6]dodeca-2(6),3-dien-7-yl]-acetamide [Example 98]”, the IC50 is less than 100 nM.
